This note sets out measurements from patent US20100004159A1, “SUBSTITUTED IMIDAZOLONE DERIVATIVES, PREPARATIONS AND USES” (GENFIT, priority 2006, published 2010).

One data set concerns ApoE2/E2 mouse. As to the kind of experiment: Plasma lipids and cholesterol distribution in dyslipidemic ApoE2/E2 mouse. The following applies: for total cholesterol level / triglyceride level: 7 days per os. Format: in vivo. How it is done:
The hypolipemic properties of the compounds according to the invention were evaluated in vivo by assaying plasma lipids and by an analysis of the gene expression of PPARs target genes, in the liver after a treatment of the dyslipidemic E2/E2 mice with the compounds according to the invention.
The murine model used is the ApoE2/E2 mouse, a transgenic mouse having human apolipoprotein E isoform E2 (Sullivan P M et al., 1998). In human, this apolipoprotein, a constituent of the low and the very low density lipoproteins (LDL-VLDL), exists in three isoforms E2, E3, and E4. The E2 form has a mutation affecting the amino acid of position 158, which considerably weakens the affinity of this protein for the receptors to LDL., the VLDL clearance is nearly non-existent.
The ApoE2/E2 transgenic mice were kept on a 12 hour/12 hour light/dark cycle at a constant temperature of 20±3° C. After a one week acclimatization period, the mice were weighed and divided into groups of 5 animals selected so as to render uniform the distribution of their body weights and their plasma lipid levels, determined before the experiment. The tested compounds were suspended in carboxymethylcellulose (Sigma C4888) and administered by intra-gastric tube feeding, once a day for 7 days at the chosen dose. The animals had free access to food and water. At the end of the experiment, the animals were anesthetized after a 4 hour fast, a blood sample was taken using anticoagulant (EDTA), then the mice were weighed and euthanized. The plasma was separated by centrifugation at 3000 rotations/minute for 20 minutes. The samples were kept at +4° C.
(§1) Plasma lipid concentrations (total cholesterol and triglycerides) were measured by enzymatic assays (bioMerieux-Lyon-France) according to the provider's recommendations.
The different lipid fractions (VLDL, LDL,HDL) of the plasma were separated by gel-filtration chromatography. The concentrations of cholesterol of each fraction were then measured by enzymatic assays (bioMerieux-Lyon-France) according to the provider's recommendations.

The subject of another data set is db/db mouse. The data set is described as follows: Plasma lipids, glycemia and insulinemia in db/db mouse. Format: in vivo. The conditions noted are these: 28-day treatment per os. How it is done:
The insulin-resistance and hypolipemic properties of the compounds according to the invention were evaluated in vivo by assaying the plasma lipid, by measuring the plasma glucose and insulin levels, and by an analysis of the gene expression of PPAR target genes, after a per os treatment with the compounds according to the invention. These tests were performed in the db/db mouse
Female db/db mice were kept on a 12 hour/12 hour light/dark cycle at a constant temperature of 20±3° C. After a one week acclimatization period, the mice were weighed and divided into groups of 8 animals selected so as to render uniform the distribution of their body weights and their plasma lipid rates, determined before the experiment. The tested compounds were suspended in carboxymethylcellulose (Sigma C4888) and administered by intra-gastric tube feeding once a day for 28 days at the chosen dose. The animals had free access to food and water (standard diet). Taking of food and weight gain are recorded throughout the experiment. At the end of the experiment, the animals were anesthetized after a 4 hour fast, a blood sample was taken using (EDTA) anticoagulant, then the mice were weighed and euthanized. The plasma was separated by centrifugation at 3000 rotations/minute for 20 minutes. The samples were kept at +4° C.
as §1
Murine plasma glucose was measured according to an enzyme-colorimetric method using a Glucose RTU kit (Biomerieux). Glucose is transformed into gluconic acid under the action of glucose oxidase; the reaction releases hydrogen peroxide. Hydrogen peroxide was measured according to the Trinder reaction which, under the action of a peroxidase and in the presence of phenol and amino-4-antipyrine, produces water and a colored product, quinoneimine. The color intensity, due to the quinoneimine, is proportional to the amount of glucose present in the sample.
Murine insulin is measured using ELISA method (using the INSKR020 kit from provider Crystal chem.). A microplate is coated with a mouse anti-insulin antibody. Then, the serum to be assayed for insulin is placed onto the plate. A guinea pig anti-insulin antibody is used to recognize the complex formed by the mouse insulin and the anti-insulin monoclonal antibody. Finally an anti-guinea pig antibody labeled with peroxidase is added and bind to the guinea pig anti-insulin antibody. The colorimetric reaction is performed by adding an OPD (Ortho Phenyl Diamine) enzyme substrate. The intensity of the color is proportional to the amount of insulin present in the sample.

In data set [1] the test system is Wistar rats under perfusion of angiotensin II. The data set is described as follows: Arterial pressure of Wistar rats under angiotensin II perfusion. The data set is classed as in vivo, rat. The conditions noted are these: angiotensin II perfusion 100 ng/kg/min; intravenous increasing doses 1, 3, 10 and 30 mpk. Here is the method: This experimental procedure is intended to show the anti-hypertensive effects of the compounds according to the invention in Wistar rats in which hypertension is induced either by continuous intravenous administration of angiotensin II (example 21.1) or by repeated intravenous administration of angiotensin II (example 21.2). The animals were treated with the compounds according to the invention intravenously at increasing doses. To validate the study, the control animals were administered, in the same conditions, either the vehicle itself or a reference.
Wistar rats (males—200-250 g—5-6 weeks old—CERJ) were anesthetized for surgery using pentobarbital (50 mg/kg). A catheter was placed in the right jugular vein for the angiotensin II perfusion. A catheter was placed in the left jugular vein for the administration of the compounds according to the invention. The angiotensin II perfusion at 100 ng/kg/min was performed using an auto-syringe set at 5 ml/hour (vehicle NaCl 0.15M). A solution of Na2CO3/NaHCO3 (50 mM pH 9.6) served as the vehicle for the compounds according to the invention. Arterial pressure was measured using a sensor set in the carotid artery via a catheter.
The arterial pressure of the animal was measured for few minutes in basal conditions, before the angiotensin II perfusion was put into place. […]

Setting [2] is: 7-day treatment, 10, 30 and 100 mpk.

With `CCCCC1=NC2(CCCC2)C(=O)N1Cc1ccc(-c2cccc(OC(C)(C)C(=O)O)c2)cc1` [Compound 1, 2-butyl-1-[(3′-((1-carboxy-1,1-dimethylmethyl)oxy)biphenyl-4-yl)methyl]-4-spirocyclopentyl-1H-imidazol-5(4H)-one], the melting point was in the range of 169 to 171 °C. Also, in the data set on ApoE2/E2 mouse (25, 50, 100 and 200 mpk), the total cholesterol level entry is “remarkable dose-dependently decrease” and the triglyceride level result is recorded as “remarkable dose-dependently decrease”. In the data set on db/db mouse (10, 30 or 100 mpk), the glycemia result is “decreased significantly (and dose-dependently)”, the insulinemia result is given as “decreased significantly (and dose-dependently)”, the “plasma free lipids level” value is recorded as “decreased significantly (and dose-dependently)” and the plasma triglycerides level result was “decreased significantly (and dose-dependently)”. The “arterial pressure: antagonist effect on angiotensin II” value in data set [1] was “antagonist effect on angiotensin II in a significant and dose-dependent way”.

Consider `CCCCC1=NC2(CCCCC2)C(=O)N1Cc1ccc(-c2cccc(OC(C)(C)C(=O)O)c2)cc1` [Compound 21, 2-butyl-1-[(3′-((1-carboxy-1,1-dimethylmethyl)oxy)biphenyl-4-yl)methyl]-4-spirocyclohexyl-1H-imidazol-5(4H)-one], for which the melting point is 160 to 162 °C. In addition, in the data set on ApoE2/E2 mouse (setting [2]), the HDL-cholesterol fraction entry is “significant increase”; the “cholesterol in VLDL and LDL fractions” value is reported as “significant decrease”. Moreover, in the data set with ApoE2/E2 mouse (10, 30 or 100 mpk), the total cholesterol level result was “remarkable dose-dependently decrease” and the triglyceride level entry was “remarkable dose-dependently decrease”. For the same molecule, in the data set with db/db mouse (100 mpk), the glycemia result is reported as “decreased significantly”, the insulinemia result is listed as “decreased significantly”, the “plasma free lipids level” value is “decreased significantly” and the plasma triglycerides level entry was “decreased significantly”. In data set [1], the “arterial pressure: antagonist effect on angiotensin II” value was “antagonist effect on angiotensin II in a significant and dose-dependent way”.

By melting point is commonly meant the temperature of the solid-liquid transition.
